# Results taken from PMC6934184, “Selective DNA-PKcs inhibition extends the therapeutic index of localized radiotherapy and chemotherapy” (The Journal of Clinical Investigation, 2019).
# Biological target: T1, HIPK3 (YAK1) (Homo sapiens, UniProt Q9H422)
# T1 construct: purchased Thermo Fisher Scientific (Life Technologies) SelectScreen
# Assay: SelectScreen Z'LYTE
# Assay type: biochemical
# Summary of the method: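 Percent values come from Thermo SelectScreen profiling of NU5455, combining activity and binding assays. CSF1R was run in Z'LYTE format at Km app ATP, and CAMK1 in Adapta format with ATP listed at 10.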
# T1 sequence (Q9H422 whole entry): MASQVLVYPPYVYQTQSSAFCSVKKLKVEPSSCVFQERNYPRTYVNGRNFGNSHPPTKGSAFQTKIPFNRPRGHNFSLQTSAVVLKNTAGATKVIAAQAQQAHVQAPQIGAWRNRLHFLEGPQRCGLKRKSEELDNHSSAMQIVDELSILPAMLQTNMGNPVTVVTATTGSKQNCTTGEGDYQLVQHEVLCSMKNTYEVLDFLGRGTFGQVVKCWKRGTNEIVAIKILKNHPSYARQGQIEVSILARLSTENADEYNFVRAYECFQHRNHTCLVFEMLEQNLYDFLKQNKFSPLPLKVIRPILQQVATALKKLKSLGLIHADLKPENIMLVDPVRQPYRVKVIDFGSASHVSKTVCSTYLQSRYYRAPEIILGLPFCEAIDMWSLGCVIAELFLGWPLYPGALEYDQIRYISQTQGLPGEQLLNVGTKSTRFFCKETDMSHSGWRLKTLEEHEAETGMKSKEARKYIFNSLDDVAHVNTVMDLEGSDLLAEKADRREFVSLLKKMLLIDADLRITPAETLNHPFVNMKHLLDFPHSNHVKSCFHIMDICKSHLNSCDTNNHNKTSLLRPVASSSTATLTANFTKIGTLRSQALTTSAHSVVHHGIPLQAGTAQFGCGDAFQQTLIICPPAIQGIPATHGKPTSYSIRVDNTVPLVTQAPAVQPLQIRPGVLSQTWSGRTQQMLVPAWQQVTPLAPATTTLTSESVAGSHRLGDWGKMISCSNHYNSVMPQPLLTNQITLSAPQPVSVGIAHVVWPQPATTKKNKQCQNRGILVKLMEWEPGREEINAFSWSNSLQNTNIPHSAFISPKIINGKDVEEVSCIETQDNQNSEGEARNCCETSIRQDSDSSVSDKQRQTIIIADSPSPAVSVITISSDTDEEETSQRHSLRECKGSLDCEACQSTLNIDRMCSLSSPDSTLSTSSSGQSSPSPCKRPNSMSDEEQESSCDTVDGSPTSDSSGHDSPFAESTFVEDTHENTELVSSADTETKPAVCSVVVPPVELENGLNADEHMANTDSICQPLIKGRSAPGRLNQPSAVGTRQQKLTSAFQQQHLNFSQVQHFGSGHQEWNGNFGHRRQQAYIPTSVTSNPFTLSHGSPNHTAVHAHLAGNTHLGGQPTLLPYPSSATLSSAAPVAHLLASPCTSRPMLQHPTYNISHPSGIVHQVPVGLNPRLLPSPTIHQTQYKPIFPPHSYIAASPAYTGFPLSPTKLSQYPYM
smiles,measurement,value
CN(C(=O)CN1CCOCC1)c1ccc2sc3c(-c4cccc5c(=O)cc(N6CC7CCC(C6)O7)oc45)cccc3c2c1 [NU5455],inhibition at 1 µM,2.5%
